Test results taken from US20160120915A1, “METHODS FOR MANIPULATING IMMUNE RESPONSES BY ALTERING MICROBIOTA” (NEW YORK UNIVERSITY, priority 2013, published 2016).

System: 547 genes related to immunology in ileal tissue
Test: Ileal gene expression profiling via Nanostring Immunology Panel, STAT
Type: in vivo, C57BL6J mice
Conditions: for Significant Changes Down (ileal Nanostring) / Significant Changes Total (ileal Nanostring) / Significant Changes Up (ileal Nanostring): 8-week old mice
Description: RNA was extracted from ileal tissue using the miRNeasy mini kit (Qiagen, Redwood City, Calif., USA) at 8 weeks of age and the expression levels of 547 genes related to immunology were measured by nCounter GX Mouse Immunology Kit (Nanostring Technologies, Seattle, Wash., USA). Significant differences between treatment and control were determined by t-test. For functional characterization, the significant changes were analyzed by Ingenuity Pathway Analysis (Qiagen, Redwood City, Calif.).
Specifically, STAT decreased 111 and 74 genes and increased only 1 and 7 genes in male and female mice, respectively, with numerous consistencies across gender (FIG. 10A-C and Table 2).

`CC1(C)S[C@@H]2[C@H](NC(=O)COc3ccccc3)C(=O)N2[C@H]1C(=O)[O-].[K+]` [STAT, penicillin VK] was tested, and the “Significant Changes Down (ileal Nanostring)” value (STAT-Female vs control) was 74, the “Significant Changes Total (ileal Nanostring)” value (STAT-Female vs control) was 81 and the “Significant Changes Up (ileal Nanostring)” value (STAT-Female vs control) was 7. For the same compound, the “Significant Changes Down (ileal Nanostring)” value (STAT-Male vs control) was 111, the “Significant Changes Total (ileal Nanostring)” value (STAT-Male vs control) was 112 and the “Significant Changes Up (ileal Nanostring)” value (STAT-Male vs control, n=4 per group, t-test <0.05) was 1. The “Significant Changes Down, shared” value (Shared: STAT-F + Recip-F) was 1, the “Significant Changes Total, shared” value (Shared: STAT-F + Recip-F) was 1 and the “Significant Changes Up, shared” value (Shared: STAT-F + Recip-F) was 0. The “Significant Changes Down, shared” value (Shared: STAT-M + Recip-F) was 3, the “Significant Changes Total, shared” value (Shared: STAT-M + Recip-F) was 3 and the “Significant Changes Up, shared” value (Shared: STAT-M + Recip-F) was 0. For the same compound, the “Significant Changes Down, shared” value (Shared: STAT-M + STAT-F) was 37, the “Significant Changes Total, shared” value (Shared: STAT-M + STAT-F) was 37 and the “Significant Changes Up, shared” value (Shared: STAT-M + STAT-F) was 0.
